“And” between values parts separate entries of the source, which are not always exact repeats. Equal values may be shown once.
Experiments:
Assay in all cases: biochemical
AURKB = AURKB (Homo sapiens, UniProt Q96GD4)
AXL = target: T1, AXL (Homo sapiens, UniProt P30530)
T1 sequence (P30530 1-894): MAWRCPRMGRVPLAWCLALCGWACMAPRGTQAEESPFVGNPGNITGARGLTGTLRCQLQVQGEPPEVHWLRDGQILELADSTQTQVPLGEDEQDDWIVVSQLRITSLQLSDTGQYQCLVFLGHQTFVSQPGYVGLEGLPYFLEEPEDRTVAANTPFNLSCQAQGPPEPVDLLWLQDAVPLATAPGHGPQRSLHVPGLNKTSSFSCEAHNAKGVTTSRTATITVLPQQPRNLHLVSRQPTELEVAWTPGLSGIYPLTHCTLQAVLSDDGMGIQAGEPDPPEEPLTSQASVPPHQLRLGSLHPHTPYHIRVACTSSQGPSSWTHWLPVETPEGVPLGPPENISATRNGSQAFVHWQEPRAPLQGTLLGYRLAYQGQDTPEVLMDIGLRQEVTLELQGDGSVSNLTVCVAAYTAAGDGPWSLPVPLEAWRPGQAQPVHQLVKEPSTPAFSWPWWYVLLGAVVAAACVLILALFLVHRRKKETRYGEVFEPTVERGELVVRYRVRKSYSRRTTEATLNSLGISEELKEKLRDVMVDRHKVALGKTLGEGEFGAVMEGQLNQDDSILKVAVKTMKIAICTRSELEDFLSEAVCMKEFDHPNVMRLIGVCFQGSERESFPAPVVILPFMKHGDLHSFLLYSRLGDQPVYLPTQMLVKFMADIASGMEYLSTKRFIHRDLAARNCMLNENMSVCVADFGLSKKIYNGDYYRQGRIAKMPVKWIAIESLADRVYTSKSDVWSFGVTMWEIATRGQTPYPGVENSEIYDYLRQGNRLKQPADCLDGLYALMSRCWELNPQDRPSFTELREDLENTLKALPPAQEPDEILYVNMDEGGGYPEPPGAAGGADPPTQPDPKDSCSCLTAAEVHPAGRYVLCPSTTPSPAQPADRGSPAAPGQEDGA

BMP2K = BMP2K (Homo sapiens, UniProt Q9NSY1)
CSNK1A1 = CSNK1A1 (Homo sapiens, UniProt P48729)
DYRK1A = DYRK1A (Homo sapiens, UniProt Q13627)
PDPK1 = target: T2, PDPK1 (Homo sapiens, UniProt O15530)
T2 sequence (O15530 1-556): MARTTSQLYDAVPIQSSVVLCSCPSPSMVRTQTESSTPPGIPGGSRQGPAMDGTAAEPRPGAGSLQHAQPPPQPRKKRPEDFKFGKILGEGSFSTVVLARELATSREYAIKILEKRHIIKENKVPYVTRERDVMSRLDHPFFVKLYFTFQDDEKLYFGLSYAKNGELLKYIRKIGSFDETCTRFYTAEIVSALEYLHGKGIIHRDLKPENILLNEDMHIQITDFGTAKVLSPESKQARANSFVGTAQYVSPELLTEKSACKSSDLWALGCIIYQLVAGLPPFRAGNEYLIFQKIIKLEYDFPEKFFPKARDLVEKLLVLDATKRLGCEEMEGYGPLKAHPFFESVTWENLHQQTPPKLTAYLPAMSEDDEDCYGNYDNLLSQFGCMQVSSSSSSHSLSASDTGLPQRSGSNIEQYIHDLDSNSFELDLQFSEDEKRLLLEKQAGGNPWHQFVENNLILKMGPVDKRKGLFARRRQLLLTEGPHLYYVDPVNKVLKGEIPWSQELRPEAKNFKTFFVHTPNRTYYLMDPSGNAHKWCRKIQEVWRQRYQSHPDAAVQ

PIM1 = PIM1 (Homo sapiens, UniProt P11309)
PLK4 = target: T3, PLK4 (Homo sapiens, UniProt O00444)
T3 sequence (O00444 1-970): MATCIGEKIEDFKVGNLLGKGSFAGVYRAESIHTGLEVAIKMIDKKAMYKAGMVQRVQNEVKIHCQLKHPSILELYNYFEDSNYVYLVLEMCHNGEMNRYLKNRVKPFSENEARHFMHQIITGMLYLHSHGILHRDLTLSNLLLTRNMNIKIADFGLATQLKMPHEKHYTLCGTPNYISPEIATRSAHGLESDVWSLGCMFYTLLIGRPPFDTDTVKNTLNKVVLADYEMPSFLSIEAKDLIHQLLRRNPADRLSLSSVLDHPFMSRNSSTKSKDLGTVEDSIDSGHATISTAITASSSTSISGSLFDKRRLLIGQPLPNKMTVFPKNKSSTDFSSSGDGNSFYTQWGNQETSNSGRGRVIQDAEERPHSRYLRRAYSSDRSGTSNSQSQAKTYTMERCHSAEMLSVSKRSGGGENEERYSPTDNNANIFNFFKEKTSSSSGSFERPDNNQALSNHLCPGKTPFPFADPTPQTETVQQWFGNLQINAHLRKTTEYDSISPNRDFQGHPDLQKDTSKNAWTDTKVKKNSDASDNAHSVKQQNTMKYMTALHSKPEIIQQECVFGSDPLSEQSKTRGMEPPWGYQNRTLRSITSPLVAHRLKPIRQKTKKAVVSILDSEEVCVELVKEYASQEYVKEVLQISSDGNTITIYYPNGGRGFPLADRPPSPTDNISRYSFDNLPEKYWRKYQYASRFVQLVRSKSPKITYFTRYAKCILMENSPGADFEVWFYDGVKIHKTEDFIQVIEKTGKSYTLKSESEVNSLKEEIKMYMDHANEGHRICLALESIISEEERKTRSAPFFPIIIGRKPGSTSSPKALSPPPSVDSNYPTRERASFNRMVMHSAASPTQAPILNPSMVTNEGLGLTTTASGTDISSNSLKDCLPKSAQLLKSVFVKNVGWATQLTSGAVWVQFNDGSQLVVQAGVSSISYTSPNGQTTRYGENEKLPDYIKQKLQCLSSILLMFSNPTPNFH

PRKCD = PRKCD (Homo sapiens, UniProt Q05655)
PRKCQ = PRKCQ (Homo sapiens, UniProt Q04759)
RIPK2 = RIPK2 (Homo sapiens, UniProt O43353)
Chain of RIPK2 (O43353 whole entry): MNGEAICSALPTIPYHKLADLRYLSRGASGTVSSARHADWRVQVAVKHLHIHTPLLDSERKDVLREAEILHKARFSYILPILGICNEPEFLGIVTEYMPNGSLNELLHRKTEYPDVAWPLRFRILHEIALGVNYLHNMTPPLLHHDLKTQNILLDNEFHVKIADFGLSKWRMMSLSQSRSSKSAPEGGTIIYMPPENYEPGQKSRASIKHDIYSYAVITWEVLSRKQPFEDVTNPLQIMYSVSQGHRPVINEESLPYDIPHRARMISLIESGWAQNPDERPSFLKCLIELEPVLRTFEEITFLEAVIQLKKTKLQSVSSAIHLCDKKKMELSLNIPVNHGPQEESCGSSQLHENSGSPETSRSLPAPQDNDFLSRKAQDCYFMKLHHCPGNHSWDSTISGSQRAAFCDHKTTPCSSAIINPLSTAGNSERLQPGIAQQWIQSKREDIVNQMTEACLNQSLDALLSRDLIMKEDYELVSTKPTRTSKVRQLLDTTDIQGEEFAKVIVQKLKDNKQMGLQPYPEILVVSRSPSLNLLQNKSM

Chain of PRKCD (Q05655 whole entry): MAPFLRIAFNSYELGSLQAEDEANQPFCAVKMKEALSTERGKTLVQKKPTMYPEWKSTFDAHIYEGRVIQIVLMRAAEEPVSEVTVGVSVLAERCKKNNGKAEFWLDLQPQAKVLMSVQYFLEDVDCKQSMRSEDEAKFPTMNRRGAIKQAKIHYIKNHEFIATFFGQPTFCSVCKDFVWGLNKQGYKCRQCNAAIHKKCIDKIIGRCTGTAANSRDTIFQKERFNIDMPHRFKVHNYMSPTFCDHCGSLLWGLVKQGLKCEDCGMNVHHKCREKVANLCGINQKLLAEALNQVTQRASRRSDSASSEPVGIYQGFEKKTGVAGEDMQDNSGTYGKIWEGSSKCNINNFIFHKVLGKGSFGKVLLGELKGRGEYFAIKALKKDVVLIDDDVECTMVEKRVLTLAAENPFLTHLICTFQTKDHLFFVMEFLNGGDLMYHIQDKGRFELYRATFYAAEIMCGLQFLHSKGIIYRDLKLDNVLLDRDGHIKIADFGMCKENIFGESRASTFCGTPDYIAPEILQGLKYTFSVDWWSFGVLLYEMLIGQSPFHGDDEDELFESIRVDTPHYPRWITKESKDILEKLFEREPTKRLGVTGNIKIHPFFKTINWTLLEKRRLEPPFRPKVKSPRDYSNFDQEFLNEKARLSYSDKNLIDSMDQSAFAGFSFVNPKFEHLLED
Chain of CSNK1A1 (P48729 whole entry): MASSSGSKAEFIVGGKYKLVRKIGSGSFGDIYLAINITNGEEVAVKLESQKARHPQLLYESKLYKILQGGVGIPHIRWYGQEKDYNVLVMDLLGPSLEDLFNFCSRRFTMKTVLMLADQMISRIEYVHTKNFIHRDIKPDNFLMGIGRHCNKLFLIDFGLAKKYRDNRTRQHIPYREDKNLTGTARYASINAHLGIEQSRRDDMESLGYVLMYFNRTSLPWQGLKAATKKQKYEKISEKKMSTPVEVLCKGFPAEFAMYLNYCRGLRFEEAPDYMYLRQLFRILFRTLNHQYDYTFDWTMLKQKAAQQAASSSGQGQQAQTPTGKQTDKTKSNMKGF
Chain of PIM1 (P11309 whole entry): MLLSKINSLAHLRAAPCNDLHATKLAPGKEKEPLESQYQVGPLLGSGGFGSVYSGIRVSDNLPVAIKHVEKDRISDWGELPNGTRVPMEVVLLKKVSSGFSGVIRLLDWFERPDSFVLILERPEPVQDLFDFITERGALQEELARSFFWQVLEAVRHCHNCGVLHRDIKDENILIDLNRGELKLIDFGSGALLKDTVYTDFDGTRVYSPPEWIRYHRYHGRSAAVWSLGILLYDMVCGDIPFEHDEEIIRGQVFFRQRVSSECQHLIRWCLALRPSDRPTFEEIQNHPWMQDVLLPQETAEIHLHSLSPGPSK
Chain of PRKCQ (Q04759 whole entry): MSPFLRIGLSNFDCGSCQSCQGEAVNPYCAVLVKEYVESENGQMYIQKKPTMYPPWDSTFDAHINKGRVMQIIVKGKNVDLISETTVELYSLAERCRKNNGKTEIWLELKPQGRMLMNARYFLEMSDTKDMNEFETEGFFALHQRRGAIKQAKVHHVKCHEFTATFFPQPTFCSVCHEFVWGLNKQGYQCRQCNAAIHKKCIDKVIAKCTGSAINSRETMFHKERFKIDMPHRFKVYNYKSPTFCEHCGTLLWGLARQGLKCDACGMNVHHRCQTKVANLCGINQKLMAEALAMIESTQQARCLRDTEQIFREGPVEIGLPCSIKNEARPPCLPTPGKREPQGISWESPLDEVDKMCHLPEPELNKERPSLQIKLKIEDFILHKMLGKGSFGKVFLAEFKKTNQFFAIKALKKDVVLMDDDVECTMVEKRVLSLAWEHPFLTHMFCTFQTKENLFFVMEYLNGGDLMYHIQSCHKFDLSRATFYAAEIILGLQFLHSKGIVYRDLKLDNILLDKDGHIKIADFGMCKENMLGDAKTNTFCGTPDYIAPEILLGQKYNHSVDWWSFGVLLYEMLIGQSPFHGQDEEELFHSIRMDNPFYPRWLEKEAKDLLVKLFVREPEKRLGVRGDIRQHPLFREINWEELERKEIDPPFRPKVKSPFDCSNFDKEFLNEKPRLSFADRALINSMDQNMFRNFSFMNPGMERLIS
Chain of BMP2K (Q9NSY1 whole entry): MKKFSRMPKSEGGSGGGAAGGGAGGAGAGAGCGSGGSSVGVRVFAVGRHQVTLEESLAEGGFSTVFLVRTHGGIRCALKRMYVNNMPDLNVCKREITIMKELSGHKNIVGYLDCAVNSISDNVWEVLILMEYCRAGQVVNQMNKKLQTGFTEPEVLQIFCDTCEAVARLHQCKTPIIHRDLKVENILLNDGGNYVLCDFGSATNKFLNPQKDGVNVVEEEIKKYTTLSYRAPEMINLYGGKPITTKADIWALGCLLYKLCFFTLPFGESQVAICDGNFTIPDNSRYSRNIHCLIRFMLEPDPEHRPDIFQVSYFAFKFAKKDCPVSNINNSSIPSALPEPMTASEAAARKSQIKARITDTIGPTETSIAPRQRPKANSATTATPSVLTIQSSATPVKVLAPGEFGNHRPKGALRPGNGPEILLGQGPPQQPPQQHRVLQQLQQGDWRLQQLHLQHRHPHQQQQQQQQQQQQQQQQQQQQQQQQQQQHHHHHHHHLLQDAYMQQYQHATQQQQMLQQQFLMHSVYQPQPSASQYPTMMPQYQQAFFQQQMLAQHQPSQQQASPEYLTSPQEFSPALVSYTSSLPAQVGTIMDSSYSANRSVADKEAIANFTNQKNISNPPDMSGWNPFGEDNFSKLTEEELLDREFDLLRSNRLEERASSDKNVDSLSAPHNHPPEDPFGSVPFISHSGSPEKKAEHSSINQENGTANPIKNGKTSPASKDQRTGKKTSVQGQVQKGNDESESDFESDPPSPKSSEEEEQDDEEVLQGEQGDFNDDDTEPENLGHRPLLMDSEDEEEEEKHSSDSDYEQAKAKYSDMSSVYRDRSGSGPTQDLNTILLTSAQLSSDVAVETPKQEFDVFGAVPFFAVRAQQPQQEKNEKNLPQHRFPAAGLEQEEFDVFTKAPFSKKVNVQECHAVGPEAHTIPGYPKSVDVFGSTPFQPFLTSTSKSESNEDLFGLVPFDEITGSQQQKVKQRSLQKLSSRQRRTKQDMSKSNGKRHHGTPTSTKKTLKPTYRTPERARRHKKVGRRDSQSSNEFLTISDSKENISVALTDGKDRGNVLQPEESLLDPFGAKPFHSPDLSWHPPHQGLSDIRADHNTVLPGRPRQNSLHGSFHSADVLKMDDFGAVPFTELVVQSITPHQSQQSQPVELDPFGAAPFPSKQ
Chain of AURKB (Q96GD4 whole entry): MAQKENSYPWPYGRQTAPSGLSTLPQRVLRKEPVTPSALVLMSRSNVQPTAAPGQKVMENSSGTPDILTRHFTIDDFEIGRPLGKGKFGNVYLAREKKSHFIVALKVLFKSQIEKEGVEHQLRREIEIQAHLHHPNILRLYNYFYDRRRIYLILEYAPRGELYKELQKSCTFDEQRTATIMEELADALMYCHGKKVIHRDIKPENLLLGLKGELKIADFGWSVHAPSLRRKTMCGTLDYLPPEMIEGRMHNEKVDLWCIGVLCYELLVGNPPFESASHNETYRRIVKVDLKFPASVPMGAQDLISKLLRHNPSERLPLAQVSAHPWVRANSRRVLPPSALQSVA

For `CN1CCN(c2ccc(Nc3ncc(C#N)c(Nc4ccccc4C(N)=O)n3)cc2)CC1.Cl` [TCMDC-134116], the IC50 (AURKB) was 40 nM and 64 nM, the IC50 (AXL) was 500 nM and 550 nM and the IC50 (BMP2K) was 350 nM and 290 nM. The IC50 (CSNK1A1) was 960 nM and 1400 nM, the IC50 (DYRK1A) was 490 nM and 450 nM and the IC50 (PDPK1) was 890 nM and 740 nM. For the same molecule, the IC50 (PIM1) was 7200 nM and 6000 nM, the IC50 (PLK4) was 210 nM and 270 nM and the IC50 (PRKCD) was 850 nM. The IC50 (PRKCQ) was 1200 nM and 910 nM and the IC50 (RIPK2) was 810 nM.

Work on `Cl.NCC1(c2nc(-c3ccc(Cl)c(O)c3)c(-c3ccncc3)[nH]2)CCCCC1` [TCMDC-141154] yielded an IC50 (AURKB) greater than 20000 nM, an IC50 (AXL) greater than 20000 nM and an IC50 (BMP2K) greater than 20000 nM. The IC50 (CSNK1A1) was 290 nM and 330 nM, the IC50 (DYRK1A) was greater than 20000 nM and the IC50 (PDPK1) was greater than 20000 nM. It also gave an IC50 (PIM1) greater than 20000 nM, an IC50 (PLK4) greater than 20000 nM and an IC50 (PRKCD) of 1000 nM. For the same molecule, the IC50 (PRKCQ) was 1100 nM and 1400 nM and the IC50 (RIPK2) was 43 nM and 52 nM.

Molecule `CN(C)CC(O)COc1ccc(Nc2ncc([N+](=O)[O-])c(Nc3ccccc3O)n2)cc1.O=C(O)C(F)(F)F` (stereo not drawn) [TCMDC-141399] has an IC50 (AURKB) of 4200 nM, an IC50 (AXL) greater than 20000 nM and an IC50 (BMP2K) greater than 20000 nM. For the same molecule, the IC50 (CSNK1A1) was 9900 nM, the IC50 (DYRK1A) was 4900 nM and the IC50 (PDPK1) was greater than 20000 nM. For the same molecule, the IC50 (PIM1) was greater than 20000 nM, the IC50 (PLK4) was greater than 20000 nM and the IC50 (PRKCD) was greater than 20000 nM. For the same molecule, the IC50 (PRKCQ) was greater than 20000 nM and the IC50 (RIPK2) was greater than 20000 nM.

Source: PMC4774911, “Biochemical Screening of Five Protein Kinases from Plasmodium falciparum against 14,000 Cell-Active Compounds” (PLoS ONE, 2016)
